Measurements published in US9481900B2, “Polypeptides having oxidoreductase activity and their uses” (Purac Biochem B.V., priority 2009, dated 2016).
Values after ≈ are worked out from the molar mass of the structure shown.

Key:
[1] = Solubility of FDCA in water; format: physicochemical
[2] = HMF oxidoreductase assay: FDCA formation in cell extract of P. putida_pJT'hmfH; format: biochemical
Method: Cell extracts of wildtype C. basilensis HMF14 or P. putida S12 transformants expressing HMF oxidoreductase were prepared from 50-ml late exponential growth phase cultures using MM supplemented with either 12 mM succinate (C. basilensis HMF14, OD600≈1.5) or 20 mM glucose (P. putida S12, OD600≈4). The cultures were harvested by centrifugation and resuspended in 3 ml of assay buffer. Cells were disrupted by sonication, using either a Branson sonifier (micro tip at pulse mode, output set at 3 and percentage duty cycle set to 40%; 3 cycles of sonication: 45 s of pulsing and 15 s pause) or a Sonics Vibra-Cell (Sonics&Materials, USA) (5 mm tapered microtip; pulse mode set to 1 min (0.5 s pulse, 2 sec pause). After sonication, debris was removed by centrifuging at 8228×g for 3 min at 4° C. The supernatant was desalted using a PD10 gel filtration column (GE healthcare) and used as cell extract for HMF oxidoreductase assays. Protein concentration was measured using Bradford reagent (Sigma-Aldrich).
HMF oxidoreductase assays were performed in cell extracts of wildtype C. basilensis HMF14 or P. putida S12 transformants expressing the C. basilensis HMF14 HMF oxidoreductase. As a negative control, wildtype P. putida S12 or a C. basilensis HMF14 mutant was used that carried a transposon insertion in the hmfH gene. […]

Row | solubility ([1]; aqueous buffer, pH 1.0) | solubility ([1]; pH 0.5, aqueous buffer) | Molecule | substrate oxidation by the enzyme [2]
1 | ~1500 µg/mL (≈ 9.61 mM) | ~400 µg/mL (≈ 2.56 mM) | O=C(O)c1ccc(C(=O)O)o1 [FDCA, 2,5-Furan-dicarboxylic acid] | –
2 | – | – | HmfH: 62 317 Da FAD-dependent GMC-family oxidoreductase of Cupriavidus basilensis HMF14, encoded by hmfH (protein, listed as Cupriavidus basilensis) MDTPRERFDYVIVGGGSAGCVLANRLSQDPAIRVALIEAGVDTPPDAVPAEILDSYPMPLFFGDRYIWPSLQARAVAGGRSKVYEQGRVMGGGSSINVQAANRGLPRDYDEWAASGASGWSWQDVLPYFRHLERDVDYGNSPLHGSHGPVPIRRILPQAWPPFCTEFAHAMGRSGLSALADQNAEFGDGWFPAAFSNLDDKRVSTAIAYLDADTRRRANLRIYAETTVRKLVVSGREARGVIAMRADGSRLALDAGEVIVSAGALQSPAILMRAGIGDAGALQALGIEVVADRPGVGRNLQDHPALTFCQFLAPQYRMPLSRRRASMTAARFSSGVPGGEASDMYLSSSTRAGWHALGNRLGLFFLWCNRPFSRGQVSLAGAQPDVPPMVELNLLDDERDLRRMVAGVRKLVQIVGASALHQHPGDFFPATFSPRVKALSRVSRGNVLLTELLGAVLDVSGPLRRSLIARFVTGGANLASLLTDESALEGFVRQSVFGVWHASGTCRMGAHADRSAVTDAAGRVHDVGRLRVIDASLMPRLPTANTNIPTIMLAEKIADTMQAERRAVRPASSEVAHPS | ability to oxidize HMF-acid to furan-dicarboxylic acid (FDCA)
